Experimental data from patent publication US10640534B2 (Agios Pharmaceuticals, Inc., priority 2012, dated 2020).

system: U87MG cells; test: Cellular assay, inhibition of 2-HG production in U87MG cells; assay type: cell-based; settings: Homo sapiens, U-87 MG, 48 h
Outline: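 HT1080 or U87MG cells (U87MG kept with 500 ug/mL G418) seeded at 5000 cells/well and treated with compound at 0.2% final DMSO. Incubated 48 h at 37 °C. 2-HG inhibition determined by LC-MS. Viability read by CellTiter-Glo luminescence at 72 h post-dose.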

| SMILES | IC50 |
| --- | --- |
| N#Cc1ccnc(N2C(=O)N(CCO)C[C@H]2C(=O)N(c2cccc(F)c2)C(C(=O)NC2CC(F)(F)C2)c2ccccc2Cl)c1 (stereo partly drawn) [Compound 112, (4S)—N-(1-(2-Chlorophenyl)-2-(3,3-difluorocyclobutyl-amino)-2-oxoethyl)-3-(4-cyanopyridin-2-yl)-N-(3-fluorophenyl)-1-(2-hydroxyeth-yl)-2-oxoimidazolidine-4-carboxamide] | < 100 nM |
| O=C(NC1CC(F)(F)C1)[C@H](c1ccccc1Cl)N(C(=O)[C@@H]1COC(=O)N1c1cscn1)c1cccc(F)c1 [Compound 72, (S)—N—((S)-1-(2-Chlorophenyl)-2-((3,3-difluorocyclobutyl)amino)-2-oxoethyl)-N-(3-fluorophenyl)-2-oxo-3-(thiazol-4-yl)oxazolidine-4-carboxamide] | < 100 nM |
| CC(C)(C)OC(=O)N1CC(=O)N(c2nccc(C#N)n2)[C@H](C(=O)N(c2cc(F)cc(F)c2)[C@H](C(=O)NC2CC(F)(F)C2)c2ccccc2Cl)C1 [Compound 98, (3S)-tert-butyl 3-((1-(2-chlorophenyl)-2-((3,3-difluorocyclobutyl)amino)-2-oxoethyl)(3,5-difluorophenyl)carbamoyl)-4-(4-cyanopyrimidin-2-yl)-5-oxopiperazine-1-carboxylate] | < 100 nM |
| O=C(NC1CC(F)(F)C1)C(c1ccccc1Cl)N(C(=O)[C@@H]1CCCC(=O)N1c1ncccn1)c1cccc(F)c1 (stereo in doubt) [Compound 20, (S)—N—((R)-1-(2-Chloro-phenyl)-2-((3,3-difluorocyclobutyl)amino)-2-oxoethyl)-N-(3-fluoro-phenyl)-6-oxo-1-(pyrimidin-2-yl)piperidine-2-carboxamide] | 100 to 500 nM |
| N#Cc1ccnc(N2C(=O)[C@H](O)C[C@H]2C(=O)N(c2cccc(F)c2)[C@H](C(=O)NC2CC(F)(F)C2)c2ccccc2Cl)n1 [Compound 120, (2S,4R)—N—((S)-1-(2-Chlorophenyl)-2-((3,3-difluorocyclobutyl)amino)-2-oxoethyl)-1-(4-cyanopyrimidin-2-yl)-N-(3-fluorophenyl)-4-hydroxy-5-oxopyrrolidine-2-carboxamide] | 100 to 500 nM |
| O=C(NC1CC(F)(F)C1)C(c1c(Cl)cccc1Cl)N(C(=O)[C@@H]1CCC(=O)N1c1ncccn1)c1cccc(F)c1 (stereo partly drawn) [Compound 51] | 100 to 500 nM |
| O=C(NC1CCC(F)(F)CC1)[C@H](c1ccccc1Cl)N(C(=O)[C@@H]1COC(=O)N1c1ncccn1)c1cccc(F)c1 [Compound 76, (S)—N—((S)-1-(2-Chlorophenyl)-2-((4,4-difluorocyclohexyl)amino)-2-oxoethyl)-N-(3-fluoro-phenyl)-2-oxo-3-(pyrimidin-2-yl)oxazolidine-4-carboxamide] | < 100 nM |
| CC(C)(C)OC(=O)N1CC(=O)N(c2cc(C#N)ccn2)[C@H](C(=O)N(c2cccc(F)c2)[C@H](C(=O)NC2CC(F)(F)C2)c2ccccc2Cl)C1 [Compound 89, (3S)-tert-Butyl 3-((1-(2-chlorophenyl)-2-((3,3-difluorocyclobutyl)amino)-2-oxoethyl)(3-fluorophenyl)carbamoyl)-4-(4-cyanopyridin-2-yl)-5-oxopiperazine-1-carboxylate] | < 100 nM |
| N#Cc1ccnc(N2C(=O)[C@H](O)C[C@H]2C(=O)N(c2cc(F)cc(F)c2)[C@@H](C(=O)NC2CCC(F)(F)CC2)c2ccccc2Cl)c1 [Compound 124, (2S,4R)—N—((R)-1-(2-Chlorophenyl)-2-(4,4-difluorocyclohexylamino)-2-oxoethyl)-1-(4-cyanopyridin-2-yl)-N-(3,5-difluorophenyl)-4-hydroxy-5-oxopyrrolidine-2-carboxamide] | < 100 nM |
| N#Cc1ccnc(N2C(=O)CCC[C@H]2C(=O)N(c2cccc(F)c2)[C@H](C(=O)NC2CCC(F)(F)CC2)c2ccccc2Cl)c1 [Compound 75, (S)—N—((S)-1-(2-Chlorophenyl)-2-((4,4-difluorocyclohexyl)amino)-2-oxoethyl)-1-(4-cyano-pyridin-2-yl)-N-(3-fluorophenyl)-6-oxopiperidine-2-carboxamide] | < 100 nM |
| O=C(NC1CC(F)(F)C1)[C@H](c1ccccc1Cl)N(C(=O)[C@@H]1CCC(=O)N1c1nccs1)c1cccc(F)c1 [Compound 14] | 100 to 500 nM |

Second part, the molecule after the results:

| IC50 | SMILES |
| --- | --- |
| 100 to 500 nM | O=C(NC1CC(F)(F)C1)C(c1ccccc1Cl)N(C(=O)[C@@H]1CCC(=O)N1c1ccccn1)c1cccc(F)c1 (stereo partly drawn) [Compound 5] |
| < 100 nM | N#Cc1cccc(N(C(=O)[C@@H]2CCC(=O)N2c2cc(C#N)ccn2)[C@H](C(=O)NC2CCC(F)(F)CC2)c2ccccc2Cl)c1 [Compound 166, (S)—N—((S)-1-(2-Chlorophenyl)-2-((4,4-difluorocyclohexyl)amino)-2-oxoethyl)-N-(3-cyanophenyl)-1-(4-cyanopyridin-2-yl)-5-oxopyrrolidine-2-carboxamide] |
| < 100 nM | N#Cc1ccnc(N2C(=O)CC[C@H]2C(=O)N(c2cc(F)cc(F)c2)[C@H](C(=O)NC2CCC(F)(F)CC2)c2ccccc2Cl)c1 [Compound 81, (2S)—N-(1-(2-Chlorophenyl)-2-(4,4-difluorocyclohexylamino)-2-oxoethyl)-1-(4-cyanopyridin-2-yl)-N-(3,5-difluorophenyl)-5-oxopyrrolidine-2-carboxamide] |
| < 100 nM | N#Cc1ccnc(N2C(=O)CC[C@H]2C(=O)N(c2cccc(OCCO)c2)[C@H](C(=O)NC2CC(F)(F)C2)c2ccccc2Cl)c1 (single isomer, unassigned) [Compound 130] |
| 100 to 500 nM | N#Cc1ccc(N2C(=O)CC[C@H]2C(=O)N(c2cccc(F)c2)[C@H](C(=O)NC2CC(F)(F)C2)c2ccccc2Cl)nc1 [Compound 47] |
| < 100 nM | O=C(NC1CC(F)(F)C1)C(c1ccccc1Cl)N(C(=O)C1CCC(=O)N1c1cnccn1)c1cccc(F)c1 (stereo not drawn) [Compound 18] |
| < 100 nM | C[S@+]([O-])c1cc(F)cc(N(C(=O)[C@@H]2CCC(=O)N2c2cc(C#N)ccn2)[C@H](C(=O)NC2CC(F)(F)C2)c2ccccc2Cl)c1 [Compound 190, (S)—N—((S)-1-(2-Chlorophenyl)-2-(3,3-difluorocyclobutylamino)-2-oxoethyl)-1-(4-cyanopyridin-2-yl)-N-(3-fluoro-5-((S)-methylsulfinyl)phenyl)-5-oxopyrrolidine-2-carboxamide] |
| < 100 nM | N#Cc1ccnc(N2C(=O)CC[C@H]2C(=O)N(c2cccc(C3CC3)c2)[C@H](C(=O)NC2CC(F)(F)C2)c2ccccc2Cl)c1 [Compound 173, (S)—N—((S)-1-(2-Chlorophenyl)-2-((3,3-difluorocyclobutyl)amino)-2-oxoethyl)-1-(4-cyanopyridin-2-yl)-N-(3-cyclopropylphenyl)-5-oxopyrrolidine-2-carboxamide] |
| < 100 nM | N#Cc1cc(F)cc(N(C(=O)[C@@H]2CCC(=O)N2c2cc(C#N)ccn2)[C@H](C(=O)NC2CC(F)(F)C2)c2ccccc2Cl)c1 [Compound 177, (S)—N—((S)-1-(2-Chlorophenyl)-2-(3,3-difluorocyclobutylamino)-2-oxoethyl)-N-(3-cyano-5-fluorophenyl)-1-(4-cyanopyridin-2-yl)-5-oxopyrrolidine-2-carboxamide] |
| < 100 nM | CN1CC(=O)N(c2cc(C#N)ccn2)[C@H](C(=O)N(c2cc(F)cc(F)c2)[C@H](C(=O)NC2CC(F)(F)C2)c2ccccc2Cl)C1 [Compound 101, (S)—N—((S)-1-(2-chlorophenyl)-2-((3,3-difluorocyclobutyl)amino)-2-oxoethyl)-1-(4-cyanopyridin-2-yl)-N-(3,5-difluorophenyl)-4-methyl-6-oxopiperazine-2-carboxamide] |
